Activity calls are given as the source filed them.
Tests used:
Format in all cases: functional
[1] = biological target: T1, Small ubiquitin-related modifier 1 (Homo sapiens, UniProt P63165); assay: SUMO1 protein interaction blockers, potency – biochemical, fluorescence polarization, uHTS hits, dose response (AID 624382); conditions: read-out: IC50_Mean
[2] = biological target: T2, Alkaline phosphatase, tissue-nonspecific isozyme (Homo sapiens, UniProt P05186); assay: TNAP enzyme inhibition by screening hits, dose response, selectivity assay for mouse IAP inhibitor project, biochemical, human TNAP, uHTS hits (AID 488906)
T2 sequence (P05186 whole entry): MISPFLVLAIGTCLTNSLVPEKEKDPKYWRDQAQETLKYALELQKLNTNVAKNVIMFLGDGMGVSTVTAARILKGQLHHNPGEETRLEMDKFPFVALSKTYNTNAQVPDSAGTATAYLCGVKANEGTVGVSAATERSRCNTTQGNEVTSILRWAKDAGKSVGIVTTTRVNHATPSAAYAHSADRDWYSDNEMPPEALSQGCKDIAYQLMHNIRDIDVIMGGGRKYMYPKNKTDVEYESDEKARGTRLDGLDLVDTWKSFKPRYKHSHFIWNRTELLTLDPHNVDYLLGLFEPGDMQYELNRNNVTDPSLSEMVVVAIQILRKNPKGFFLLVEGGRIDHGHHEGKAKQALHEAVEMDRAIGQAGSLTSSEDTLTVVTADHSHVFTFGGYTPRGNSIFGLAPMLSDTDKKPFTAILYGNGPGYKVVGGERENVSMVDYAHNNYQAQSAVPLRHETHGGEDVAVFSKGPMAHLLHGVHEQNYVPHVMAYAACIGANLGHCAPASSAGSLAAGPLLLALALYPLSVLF

[3] = biological target: T1, Small ubiquitin-related modifier 1; assay: SUMO1 protein-protein binding blockers, potency – biochemical, FRET, dose response (AID 624383); conditions: read-out: IC50_Mean
Bcl-2-related protein A1 = biological target: T3, Bcl-2-related protein A1 (Mus musculus, UniProt Q07440);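 note: confirmatory dose–response counterscreen on Bfl-1, used to check hits from a UBC13 polyubiquitin inhibitor campaign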
T3 sequence (Q07440 whole entry): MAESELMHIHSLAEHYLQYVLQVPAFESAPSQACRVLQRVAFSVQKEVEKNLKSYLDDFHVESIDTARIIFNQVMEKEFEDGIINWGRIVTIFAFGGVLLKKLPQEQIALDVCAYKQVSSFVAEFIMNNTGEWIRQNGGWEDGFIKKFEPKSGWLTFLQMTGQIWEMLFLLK

[4] = biological target: 5-hydroxytryptamine receptor 5A (Homo sapiens, UniProt P47898); assay: Counterscreen for agonists of OPRM1-OPRD1 heterodimerization: luminescence-based cell-based high throughput dose response assay to identify agonists of 5-hydroxytryptamine (serotonin) 5A receptor (HTR5A). [Related pubchem assays (depositor defined):AID504326, AID504355, AID504692, AID504904, AID504905]
Chain of 5-hydroxytryptamine receptor 5A (P47898 whole entry): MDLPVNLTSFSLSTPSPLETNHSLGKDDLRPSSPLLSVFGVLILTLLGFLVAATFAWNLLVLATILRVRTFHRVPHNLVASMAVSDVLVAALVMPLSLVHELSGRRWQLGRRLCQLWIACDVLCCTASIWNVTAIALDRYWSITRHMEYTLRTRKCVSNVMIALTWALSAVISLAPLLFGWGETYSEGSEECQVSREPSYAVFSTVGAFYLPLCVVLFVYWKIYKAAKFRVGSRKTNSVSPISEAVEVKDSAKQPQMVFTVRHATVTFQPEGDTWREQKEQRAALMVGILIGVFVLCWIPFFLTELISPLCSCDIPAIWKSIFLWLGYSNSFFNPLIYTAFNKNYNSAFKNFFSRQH

T1 sequence (P63165 whole entry): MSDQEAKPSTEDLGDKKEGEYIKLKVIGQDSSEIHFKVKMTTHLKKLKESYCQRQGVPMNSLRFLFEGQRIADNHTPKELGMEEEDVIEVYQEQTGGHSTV

**Q.** For `Clc1ccc(C(c2ccc(Cl)cc2)n2cc[n+](CC(OCc3ccc(Cl)cc3Cl)c3ccc(Cl)cc3Cl)c2)cc1` (stereo not given) [CALMIDAZOLIUM CHLORIDE], which IC50 [1] is on record?
**A.** > 66.6 µM (inactive)

**Q.** What about the IC50 [2] of the same molecule?
**A.** > 100 µM (inactive)

**Q.** What about the IC50 [3] of the same molecule?
**A.** 5.89 µM (active)

**Q.** And the IC50 (Bcl-2-related protein A1)?
**A.** 6.23 µM (active)

**Q.** And the EC50 [4]?
**A.** > 92.5 µM (inactive)

Source: ChEMBL document CHEMBL1201862, “PubChem BioAssay data set” (2004)
